These results are taken from patent US8163777B2, “Benzimidazolyl-pyridine compounds for inflammation and immune-related uses” (Synta Pharmaceuticals Corp., priority 2006, dated 2012).

The term IC50 denotes the concentration at which inhibition is half-maximal. High values mean lower potency, low ones higher potency.

This experiment deals with IL-2 production. The experiment can be described thus: Inhibition of IL-2 production in PHA-activated Jurkat cells (ELISA). It counts as cell-based. The settings on record: Homo sapiens, PHA 2.5 μg/mL, 20 hours. On the procedure: Jurkat cells were placed in a 96 well plate (0.5 million cells per well in 1% FBS medium) then test compounds of this invention were added at different concentrations. After 10 minutes, the cells were activated with PHA (final concentration 2.5 μg/mL) and incubated for 20 hours at 37° C. under CO2. The final volume was 200 μL. Following incubation, the cells were centrifuged and the supernatants collected and stored at −70° C. prior to assaying for IL-2 production. A commercial ELISA kit (IL-2 Eli-pair, Diaclone Research, Besancon, France) was used to detect production of IL-2, from which dose response curves were obtained. The IC50 value was calculated as the concentration at which 50% of maximum IL-2 production after stimulation was inhibited versus a non-stimulation control.
For orientation: In an ELISA, binding on a coated surface is turned into a signal by an enzyme label.

The mark [1] stands for this setting: bin given with mixed units 500 nM-1 μM.

Where the note is “binned values”, `COc1ccc2c(c1)nc(C(F)(F)F)n2-c1ccc(NC(=O)CC(C)C)nc1` [Compound 189, N-[5-(5-Methoxy-2-trifluoromethyl-benzoimidazol-1-yl)-pyridin-2-yl]-3-methyl-butyramide] yielded an IC50 of less than 0.1 µM.

Regarding `COc1ccc2c(c1)nc(C(F)(F)F)n2-c1ccc(NC(=O)C(C)(C)C)nc1` [Compound 213, N-[5-(5-Methoxy-2-trifluoromethyl-benzoimidazol-1-yl)-pyridin-2-yl]-2,2-dimethyl-propionamide], the IC50 (binned values) was more than 1 µM.

In turn, `COc1ccc2c(c1)nc(C(F)(F)F)n2-c1ccc(NC(=O)c2cc([N+](=O)[O-])cc([N+](=O)[O-])c2)cc1` [Compound 81, 3,5-Dinitro-N-[4-(2-trifluoromethyl-5-methoxy-benzoimidazol-1-yl)-phenyl]-benzamide] gave an IC50 (binned values) of 0.1 to 0.5 µM. Consider `COc1ccc2c(c1)nc(C(F)(F)F)n2-c1ccc(NC(=O)c2ccccc2F)nc1` [Compound 185, 2-Fluoro-N-[5-(5-methoxy-2-trifluoromethyl-benzoimidazol-1-yl)-pyridin-2-yl]-benzamide], for which, for the setting “binned values”, the IC50 was less than 0.1 µM.

Regarding `O=C(Nc1ccc(-n2c(C(F)(F)F)nc3cccnc32)cc1)c1cc(F)ccc1F` [Compound 56, 2,5-Difluoro-N-[4-(2-trifluoromethyl-imidazo[4,5-b]pyrid-3-yl)-phenyl]-benzamide], the IC50 under setting [1] fell in the range of 0.5 to 1 µM. As to `COc1ccc2c(c1)nc(C(F)(F)F)n2-c1ccc(NC(=O)c2cccc(Cl)c2)nc1` [Compound 179, 3-Chloro-N-[5-(5-methoxy-2-trifluoromethyl-benzoimidazol-1-yl)-pyridin-2-yl]-benzamide], the IC50 (binned values) is 0.1 to 0.5 µM. As for `O=C(Nc1ccc(-n2c(C(F)(F)F)nc3ccccc32)c(Cl)c1)c1cccc(F)c1F` [Compound 25, 2,3-Difluoro-N-[2-.chloro-4-(2-trifluoromethyl-benzoimidazol-1-yl)-phenyl]-benzamide], for the setting “binned values”, the IC50 was 0.1 to 0.5 µM. The same measure, in the same setting: in the case of `COc1ccc2c(c1)nc(C(F)(F)F)n2-c1ccc(NC(=O)c2ccc(F)cc2F)nc1` [Compound 175] it was less than 0.1 µM. For the setting “binned values”, `COc1ccc2c(c1)nc(C(F)(F)F)n2-c1ccc(NC(=O)C(C)C)nc1` [Compound 214, N-[5-(5-Methoxy-2-trifluoromethyl-benzoimidazol-1-yl)-pyridin-2-yl]-isobutyramide] had an IC50 of more than 1 µM. Turning to `COc1ccc2c(c1)nc(C(F)(F)F)n2-c1ccc(NC(=O)c2ccccc2I)nc1` [Compound 187, 2-Iodo-N-[5-(5-methoxy-2-trifluoromethyl-benzoimidazol-1-yl)-pyridin-2-yl]-benzamide], for the setting “binned values”, the IC50 was less than 0.1 µM. For the molecule `COc1ccc2c(c1)nc(C(F)(F)F)n2-c1ccc(NC(=O)c2cccc(C)c2)nc1` [Compound 198, N-[5-(5-Methoxy-2-trifluoromethyl-benzoimidazol-1-yl)-pyridin-2-yl]-3-methyl-benzamide], the IC50 under setting [1] lay within 0.5 to 1 µM. `COc1ccc2c(c1)nc(C(F)(F)F)n2-c1ccc(NC(=O)Cc2ccccc2)cc1` [Compound 95, 2-phenyl-N-[4-(2-trifluoromethyl-5-methoxy-benzoimidazol-1-yl)-phenyl]-acetamide] yielded a 50% inhibitory concentration (IC50) under setting [1] of 0.5 to 1 µM.

For the molecule `COc1ccc2c(c1)nc(C(F)(F)F)n2-c1ccc(NC(=O)c2ccccc2[N+](=O)[O-])nc1` [Compound 197, 2-Nitro-N-[5-(5-methoxy-2-trifluoromethyl-benzoimidazol-1-yl)-pyridin-2-yl]-benzamide], for the setting “binned values”, the IC50 is less than 0.1 µM. `COc1ccc2c(c1)nc(C(F)(F)F)n2-c1ccc(NC(=O)c2ccccc2Br)nc1` [Compound 180, 2-Bromo-N-[5-(5-methoxy-2-trifluoromethyl-benzoimidazol-1-yl)-pyridin-2-yl]-benzamide]: the IC50 (binned values) is less than 0.1 µM.

`COc1ccc2c(c1)nc(C(F)(F)F)n2-c1ccc(NC(=O)c2ccc(F)cc2)nc1` [Compound 170, 4-Fluoro-N-[5-(5-methoxy-2-trifluoromethyl-benzoimidazol-1-yl)-pyridin-2-yl]-benzamide] displayed an IC50 (binned values) of 0.1 to 0.5 µM. Same read-out and setting: in the case of `COc1ccc2c(c1)nc(C(F)(F)F)n2-c1ccc(NC(=O)c2cccc(C#N)c2)nc1` [Compound 183, 3-Cyano-N-[5-(5-methoxy-2-trifluoromethyl-benzoimidazol-1-yl)-pyridin-2-yl]-benzamide] it was 0.1 to 0.5 µM. Under setting [1], `COc1ccc2c(c1)nc(C(F)(F)F)n2-c1ccc(NC(=O)c2ccc(Cl)cc2)nc1` [Compound 171, 4-Chloro-N-[5-(5-methoxy-2-trifluoromethyl-benzoimidazol-1-yl)-pyridin-2-yl]-benzamide] showed an IC50 of 0.5 to 1 µM. With `COc1ccc2c(c1)nc(C(F)(F)F)n2-c1ccc(NC(=O)c2cccc(C(F)(F)F)c2)cc1` [Compound 91, 3-Trifluoromethyl-N-[4-(2-trifluoromethyl-5-methoxy-benzoimidazol-1-yl)-phenyl]-benzamide], under setting [1], the IC50 lay in the range of 0.5 to 1 µM. For `COc1ccc2c(c1)nc(C(F)(F)F)n2-c1ccc(NC(=O)c2ccc(SC)cc2)nc1` [Compound 210, N-[5-(5-Methoxy-2-trifluoromethyl-benzoimidazol-1-yl)-pyridin-2-yl]-4-methylsulfanyl-benzamide], the IC50 (binned values) is more than 1 µM.

Regarding `CNCc1ccc(C(=O)Nc2ccc(-n3c(C(F)(F)F)nc4cc(OC)ccc43)cn2)cc1` [Compound 212, N-[5-(5-Methoxy-2-trifluoromethyl-benzoimidazol-1-yl)-pyridin-2-yl]-4-methylaminomethyl-benzamide], where the note is “binned values”, the IC50 is more than 1 µM. `COc1ccc2c(c1)nc(C(F)(F)F)n2-c1ccc(NC(=O)c2cccc(SC)c2)nc1` [Compound 209, N-[5-(5-Methoxy-2-trifluoromethyl-benzoimidazol-1-yl)-pyridin-2-yl]-3-methylsulfanyl-benzamide] gave an IC50 (binned values) of more than 1 µM. Where the note is “binned values”, `CCNc1ccc(-n2c(C(F)(F)F)nc3cc(OC)ccc32)nc1` [Compound 162, Ethyl-[6-(5-methoxy-2-trifluoromethyl-benzoimidazol-1-yl)-pyridin-3-yl]-amine] registered an IC50 of more than 1 µM. For the setting “binned values”, `COC(=O)c1cccc(C(=O)Nc2ccc(-n3c(C(F)(F)F)nc4cc(OC)ccc43)cn2)c1` [Compound 192, N-[5-(5-Methoxy-2-trifluoromethyl-benzoimidazol-1-yl)-pyridin-2-yl]-isophthalamic acid methyl ester] yielded an IC50 of 0.1 to 0.5 µM.

With `CC(=O)Nc1ccc2nc(C(F)(F)F)n(-c3ccc(NC(=O)c4cccc(F)c4F)cc3)c2c1` [Compound 93, 2,3-Difluoro-N-[4-(2-trifluoromethyl-6-acetylamino-benzoimidazol-1-yl)-phenyl]-benzamide], the IC50 under setting [1] fell in the range of 0.5 to 1 µM. Where the note is “binned values”, `COc1ccc2c(c1)nc(C(F)(F)F)n2-c1ccc(NC(=O)C2CC2)nc1` [Compound 172, Cyclopropanecarboxylic acid [5-(5-methoxy-2-trifluoromethyl-benzoimidazol-1-yl)-pyridin-2-yl]-amide] yielded an IC50 of more than 1 µM. On to `COc1ccc2c(c1)nc(C(F)(F)F)n2-c1ccc(NC(=O)c2ccc([N+](=O)[O-])cc2)nc1` [Compound 190, N-[5-(5-Methoxy-2-trifluoromethyl-benzoimidazol-1-yl)-pyridin-2-yl]-4-nitro-benzamide], for which the IC50 (binned values) lay in the range of 0.1 to 0.5 µM. Molecule `COc1ccc2c(c1)nc(C(F)(F)F)n2-c1ccc(NC(=O)c2ccc(Cl)cc2Cl)nc1` [Compound 176, 2,4-Dichloro-N-[5-(5-methoxy-2-trifluoromethyl-benzoimidazol-1-yl)-pyridin-2-yl]-benzamide] registered an IC50 (binned values) of less than 0.1 µM.
